Like-named read-outs stand apart in the source and are kept apart here.
What was measured:
[1] = cited from earlier work
[2] = Pilot study: plasma β-alanine and net retention after oral ingestion (GC-MS); format: in vivo, human
Experimental: Each subject completed three trials, labeled “A”, “B”, and “C” using a Latin square design (i.e. subject 1 completed trials in ABC order, subject 2 completed trials in BCA order, and subject 3 completed trials in CAB order). […] Blood samples were drawn into lithium heparin tubes at baseline (time 0), 30 min, 1 hr, 2 hr, 3 hr, 4 hr post ingestion, spun in a clinical centrifuge for 15 minutes, and processed to obtain plasma.

[3] = system: individuals; conditions: human, in vivo
Source text: A minimum clinically significant difference in VAS rating for pain or paraesthesia appears to range from 13 mm to 16 mm with a 95% confidence interval. (See e.g., Gallagher, et al., Am J Emerg Med. 2002; 20(4):287-90; Bouhassira, et al., Pain. 2004; 108(3):248-57; Poliakov, et al. Eur J Pain. 2011 November; 15(10):1015-22; and Eisenberg, et al. Eur J Pain. 1998; 2(4):321-327). VAS rating instruments have also been deemed specific and sensitive to detect the effects of an intervention on paraesthesia and neuropathic pain.

Net Loss (uMol), Mean (SD) ([2]; Mean (SD) of 3 subjects): 9174.5 (862.96) uMol | Net Loss ([2]; Subject 1, 0-4 hr collection): 10167.5 µmol | Net Loss ([2]; Subject 2, 0-4 hr collection): 8606.6 µmol | Net Loss ([2]; Subject 3, 0-4 hr collection): 8749.3 µmol | anchored 100 mm VAS scores for paraesthesia [3]: 60 mm-90 mm
SMILES: NCCC(=O)O [β-alanine, 3-Aminopropanoic acid]
severity of paraesthesia ([1]; oral doses of 40 mg/kg or higher): moderate-to-severe | severity of paraesthesia ([1]; oral doses of 40 mg/kg): severe | severity of paraesthesia ([1]; oral, 10 mg/kg): relatively mild
